How the values were obtained:
Assay type in all cases: cell-based, Diaphorina citri
[1] = test system: neuron 2A (rhinarial plate on flagellomere 2); assay: single-sensillum electrophysiology, odor response of neuron 2A; settings: for odor response (frequency of action potentials during stimulus minus baseline), 2A: Table 1, odor diluted to 1%, 50 μL in cartridge; for response to ultra-prolonged activators, 2A: Table 3, 10^−2 in paraffin oil, 50 μL, odor puff of 0.5 sec; on all read-outs here: key: 0, no response; +, >50 spikes/second; ++, >100 spikes/second; +++, >150 spikes/second
[2] = test system: neuron 2B (rhinarial plate on flagellomere 2); assay: single-sensillum electrophysiology, odor response of neuron 2B; settings: for odor response (frequency of action potentials during stimulus minus baseline), 2B: Table 1, odor diluted to 1%, 50 μL in cartridge; for response to ultra-prolonged activators, 2B: Table 3, 10^−2 in paraffin oil, 50 μL, odor puff of 0.5 sec; on response to ultra-prolonged activators, 2B: key: 0, no response; +, >50 spikes/second; ++, >100 spikes/second; +++, >150 spikes/second
[3] = test system: neuron 4A (rhinarial plate on flagellomere 4); assay: single-sensillum electrophysiology, odor response of neuron 4A; settings: for odor response (frequency of action potentials during stimulus minus baseline), 4A: Table 1, odor diluted to 1%, 50 μL in cartridge; for response to ultra-prolonged activators, 4A: Table 3, 10^−2 in paraffin oil, 50 μL, odor puff of 0.5 sec; on response to ultra-prolonged activators, 4A: key: 0, no response; +, >50 spikes/second; ++, >100 spikes/second; +++, >150 spikes/second
[4] = test system: neuron 7B (rhinarial plate on flagellomere 7); settings: for odor response (frequency of action potentials during stimulus minus baseline), 7B: Table 1, odor diluted to 1%, 50 μL in cartridge; for response to ultra-prolonged activators, 7B: Table 3, 10^−2 in paraffin oil, 50 μL, odor puff of 0.5 sec
[5] = test system: neuron 7C (rhinarial plate on flagellomere 7); assay: single-sensillum electrophysiology, odor response of neuron 7C; settings: for odor response (frequency of action potentials during stimulus minus baseline), 7C: Table 1, odor diluted to 1%, 50 μL in cartridge; for response to ultra-prolonged activators, 7C: Table 3, 10^−2 in paraffin oil, 50 μL, odor puff of 0.5 sec
[6] = test system: neuron 2C (rhinarial plate on flagellomere 2); assay: single-sensillum electrophysiology, odor response of neuron 2C; settings: for odor response (frequency of action potentials during stimulus minus baseline), 2C: Table 1, odor diluted to 1%, 50 μL in cartridge; for response to ultra-prolonged activators, 2C: Table 3, 10^−2 in paraffin oil, 50 μL, odor puff of 0.5 sec
[7] = test system: neuron 6A (rhinarial plate on flagellomere 6); assay: single-sensillum electrophysiology, odor response of neuron 6A; settings: for odor response (frequency of action potentials during stimulus minus baseline), 6A: Table 1, odor diluted to 1%, 50 μL in cartridge; for response to ultra-prolonged activators, 6A: Table 3, 10^−2 in paraffin oil, 50 μL, odor puff of 0.5 sec
[8] = test system: neuron 4B (rhinarial plate on flagellomere 4); settings: for odor response (frequency of action potentials during stimulus minus baseline), 4B: Table 1, odor diluted to 1%, 50 μL in cartridge; for response to ultra-prolonged activators, 4B: Table 3, 10^−2 in paraffin oil, 50 μL, odor puff of 0.5 sec
[9] = test system: neuron 6C (rhinarial plate on flagellomere 6); assay: single-sensillum electrophysiology, odor response of neuron 6C; settings: for odor response (frequency of action potentials during stimulus minus baseline), 6C: Table 1, odor diluted to 1%, 50 μL in cartridge; for response to ultra-prolonged activators, 6C: Table 3, 10^−2 in paraffin oil, 50 μL, odor puff of 0.5 sec
[10] = test system: neuron 7A (rhinarial plate on flagellomere 7); assay: single-sensillum electrophysiology, odor response of neuron 7A; settings: for odor response (frequency of action potentials during stimulus minus baseline), 7A: Table 1, odor diluted to 1%, 50 μL in cartridge; for response to ultra-prolonged activators, 7A: Table 3, 10^−2 in paraffin oil, 50 μL, odor puff of 0.5 sec; on all read-outs here: key: 0, no response; +, >50 spikes/second; ++, >100 spikes/second; +++, >150 spikes/second
[11] = test system: neuron 4C (rhinarial plate on flagellomere 4); assay: single-sensillum electrophysiology, odor response of neuron 4C; settings: for odor response (frequency of action potentials during stimulus minus baseline), 4C: Table 1, odor diluted to 1%, 50 μL in cartridge; for response to ultra-prolonged activators, 4C: Table 3, 10^−2 in paraffin oil, 50 μL, odor puff of 0.5 sec
[12] = test system: neuron 6B (rhinarial plate on flagellomere 6); assay: single-sensillum electrophysiology, odor response of neuron 6B; settings: for odor response (frequency of action potentials during stimulus minus baseline), 6B: Table 1, odor diluted to 1%, 50 μL in cartridge; for response to ultra-prolonged activators, 6B: Table 3, 10^−2 in paraffin oil, 50 μL, odor puff of 0.5 sec

| Compound | odor response (frequency of action potentials during stimulus minus baseline), 2A [1] | odor response (frequency of action potentials during stimulus minus baseline), 2B [2] | odor response (frequency of action potentials during stimulus minus baseline), 4A [3] | odor response (frequency of action potentials during stimulus minus baseline), 7B [4] | odor response (frequency of action potentials during stimulus minus baseline), 7C [5] | odor response (frequency of action potentials during stimulus minus baseline), 2C [6] | odor response (frequency of action potentials during stimulus minus baseline), 6A [7] | odor response (frequency of action potentials during stimulus minus baseline), 4B [8] | odor response (frequency of action potentials during stimulus minus baseline), 6C [9] | odor response (frequency of action potentials during stimulus minus baseline), 7A [10] | odor response (frequency of action potentials during stimulus minus baseline), 4C [11] | odor response (frequency of action potentials during stimulus minus baseline), 6B [12] | further results |
| --- | --- | --- | --- | --- | --- | --- | --- | --- | --- | --- | --- | --- | --- |
| CCCCCCCCC=O [nonanal] | 0 | 0 | 0 | 0 | ++ (++, >100 spikes/second) | 0 | 0 | ++ (++, >100 spikes/second) | 0 | 0 | 0 | ++ (++, >100 spikes/second) | response to ultra-prolonged activators, 2A [1]: 0; response to ultra-prolonged activators, 2B [2]: 0; response to ultra-prolonged activators, 4A [3]: 0; response to ultra-prolonged activators, 7B [4]: 0; response to ultra-prolonged activators, 7C [5]: ++ (++, >100 spikes/second); response to ultra-prolonged activators, 2C [6]: 0; response to ultra-prolonged activators, 6A [7]: 0; response to ultra-prolonged activators, 4B [8]: ++ (++, >100 spikes/second); response to ultra-prolonged activators, 6C [9]: 0; response to ultra-prolonged activators, 7A [10]: 0; response to ultra-prolonged activators, 4C [11]: 0; response to ultra-prolonged activators, 6B [12]: ++ (++, >100 spikes/second) |
| CC(=O)OCC(C)C [isobutyl acetate] | 0 | 0 | 0 | 0 | 0 | 0 | 0 | ++ (++, >100 spikes/second) | 0 | 0 | 0 | ++ (++, >100 spikes/second) |  |
| CC1=CCC(=C(C)C)CC1 [terpinolene] | 0 | 0 | 0 | 0 | 0 | 0 | 0 | + (+, >50 spikes/second) | 0 | 0 | 0 | + (+, >50 spikes/second) |  |
| CCCCCCCCCC=O [decanal] | 0 | 0 | 0 | 0 | ++ (++, >100 spikes/second) | 0 | 0 | +++ (+++, >150 spikes/second) | 0 | 0 | 0 | ++ (++, >100 spikes/second) |  |
| C=C/C(C)=C\C/C=C(\C)CCC=C(C)C [ZE-α-farnesene] | 0 | 0 | 0 | 0 | 0 | + (+, >50 spikes/second) | 0 | 0 | 0 | 0 | 0 | 0 |  |
| CCCSSCCC [dipropyl disulfide] | 0 | 0 | 0 | 0 | 0 | 0 | 0 | + (+, >50 spikes/second) | 0 | 0 | 0 | ++ (++, >100 spikes/second) |  |
| CCCCCOC(C)=O [pentyl acetate] | 0 | 0 | 0 | 0 | 0 | ++ (++, >100 spikes/second) | 0 | + (+, >50 spikes/second) | 0 | 0 | 0 | ++ (++, >100 spikes/second) |  |
| CCC/C=C\CO [Z2-hexanol] | 0 | 0 | 0 | 0 | 0 | 0 | 0 | + (+, >50 spikes/second) | 0 | 0 | 0 | + (+, >50 spikes/second) |  |
| C/C1=C\CC/C(C)=C/CC(C)(C)/C=C/C1 [α-humulene] | 0 | ++ (++, >100 spikes/second) | 0 | ++ (++, >100 spikes/second) | 0 | 0 | 0 | 0 | 0 | 0 | 0 | 0 |  |
| C=C(C)[C@H]1CC=C(C)C(=O)C1 [(+)-carvone] | 0 | 0 | 0 | 0 | 0 | 0 | 0 | ++ (++, >100 spikes/second) | 0 | 0 | 0 | ++ (++, >100 spikes/second) | response to ultra-prolonged activators, 2A [1]: 0; response to ultra-prolonged activators, 2B [2]: 0; response to ultra-prolonged activators, 4A [3]: 0; response to ultra-prolonged activators, 7B [4]: 0; response to ultra-prolonged activators, 7C [5]: 0; response to ultra-prolonged activators, 2C [6]: 0; response to ultra-prolonged activators, 6A [7]: 0; response to ultra-prolonged activators, 4B [8]: ++ (++, >100 spikes/second); response to ultra-prolonged activators, 6C [9]: 0; response to ultra-prolonged activators, 7A [10]: 0; response to ultra-prolonged activators, 4C [11]: 0; response to ultra-prolonged activators, 6B [12]: ++ (++, >100 spikes/second) |

From US20180055032A1, “ODORS FOR PSYLLID TRAPPING, REPELLING AND CONTROL” (The Regents of the University of California, priority 2011, published 2018)
